Laboratory results from BindingDB's records for doi:10.1021/jm050825p (National Institute of Allergy and Infectious Diseases, 2006).

Columns and labels:
[1] = target: T1, 3-oxoacyl-[acyl-carrier-protein] synthase 3 (Escherichia coli, UniProt C3TDZ2); experiment: Inhibitory activity against FabH from Escherichia coli ANSI
T1 sequence (C3TDZ2 whole entry): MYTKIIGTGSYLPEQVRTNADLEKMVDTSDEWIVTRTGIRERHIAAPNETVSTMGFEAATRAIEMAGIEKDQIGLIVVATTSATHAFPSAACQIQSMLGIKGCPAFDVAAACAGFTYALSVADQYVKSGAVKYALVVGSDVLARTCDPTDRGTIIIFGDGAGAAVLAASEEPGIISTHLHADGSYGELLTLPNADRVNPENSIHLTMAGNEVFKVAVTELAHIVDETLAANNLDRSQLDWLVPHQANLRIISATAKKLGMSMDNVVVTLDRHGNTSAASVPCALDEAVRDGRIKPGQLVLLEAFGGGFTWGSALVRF

[2] = target: T2, 3-oxoacyl-[acyl-carrier-protein] synthase 1 (Escherichia coli (strain K12), UniProt P0A953); experiment: Inhibitory activity against FabB from Escherichia coli ANSI
T2 sequence (P0A953 whole entry): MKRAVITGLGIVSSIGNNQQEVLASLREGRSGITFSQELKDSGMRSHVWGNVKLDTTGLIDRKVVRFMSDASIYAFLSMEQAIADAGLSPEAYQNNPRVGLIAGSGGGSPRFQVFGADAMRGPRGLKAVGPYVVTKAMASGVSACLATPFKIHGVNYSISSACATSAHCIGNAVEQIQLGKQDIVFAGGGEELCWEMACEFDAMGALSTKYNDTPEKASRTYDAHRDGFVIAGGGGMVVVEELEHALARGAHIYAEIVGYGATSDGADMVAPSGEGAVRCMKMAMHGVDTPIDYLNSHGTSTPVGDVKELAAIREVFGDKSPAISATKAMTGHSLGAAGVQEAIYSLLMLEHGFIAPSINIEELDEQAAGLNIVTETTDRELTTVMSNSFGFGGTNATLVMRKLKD

[3] = target: T3, 3-oxoacyl-[acyl-carrier-protein] synthase 2 (Mycobacterium tuberculosis (strain ATCC 25618 / H37Rv), UniProt P9WQD7); experiment: Inhibitory activity against KasB from Mycobacterium tuberculosis H37Rv
T3 sequence (P9WQD7 whole entry): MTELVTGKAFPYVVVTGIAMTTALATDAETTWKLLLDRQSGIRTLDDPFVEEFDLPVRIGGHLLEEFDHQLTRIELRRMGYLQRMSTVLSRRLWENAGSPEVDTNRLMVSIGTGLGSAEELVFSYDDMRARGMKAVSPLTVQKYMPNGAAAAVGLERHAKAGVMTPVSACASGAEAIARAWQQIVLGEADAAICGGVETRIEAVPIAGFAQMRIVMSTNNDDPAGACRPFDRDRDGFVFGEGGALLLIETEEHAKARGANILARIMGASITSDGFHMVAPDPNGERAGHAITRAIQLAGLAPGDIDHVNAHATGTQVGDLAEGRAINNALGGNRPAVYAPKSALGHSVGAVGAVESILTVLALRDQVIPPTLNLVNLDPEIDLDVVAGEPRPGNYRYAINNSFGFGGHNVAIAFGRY

[4] = target: T4, 3-oxoacyl-[acyl-carrier-protein] synthase 3 (Mycobacterium tuberculosis (strain ATCC 25618 / H37Rv), UniProt P9WNG3); experiment: Inhibitory activity against FabH from Mycobacterium tuberculosis H37Rv
T4 sequence (P9WNG3 whole entry): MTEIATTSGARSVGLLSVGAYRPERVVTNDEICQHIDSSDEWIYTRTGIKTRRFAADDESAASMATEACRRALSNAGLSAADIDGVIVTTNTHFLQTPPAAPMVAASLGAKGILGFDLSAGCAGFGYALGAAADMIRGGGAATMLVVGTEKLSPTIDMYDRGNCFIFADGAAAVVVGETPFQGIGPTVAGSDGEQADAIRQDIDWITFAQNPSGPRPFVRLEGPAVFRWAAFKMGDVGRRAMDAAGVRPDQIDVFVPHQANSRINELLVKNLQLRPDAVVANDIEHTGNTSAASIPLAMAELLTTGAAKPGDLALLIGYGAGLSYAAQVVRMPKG

## CCCCCC(C)C1(C)SC(=O)C(C)C1=O (stereo not given) [3,5-dimethyl-4-hydroxy-5-(1-methylhexyl)-5H-thiophen-2-one]
[1]
  IC50: > 1000 µM
[2]
  IC50: > 1000 µM
[3]
  IC50: > 1000 µM
[4]
  IC50: > 1000 µM

## CCC(C)C1(C)SC(=O)C(C)C1=O (stereo not given) [3,5-dimethyl-4-hydroxy-5-(1-methylpropyl)-5H-thiophen-2-one]
[4]
  IC50: > 100 µM

## CC1C(=O)SC(C)(C(C)c2ccccc2)C1=O (stereo not given) [3,5-dimethyl-4-hydroxy-5-(1-phenylethyl)-5H-thiophen-2-one]
[1]
  IC50: > 1000 µM
[2]
  IC50: > 1000 µM
[3]
  IC50: > 1000 µM
[4]
  IC50: > 1000 µM

## Cc1cc(C)c(CC2(C)SC(=O)C(C)C2=O)c(C)c1 (stereo not given) [3,5-dimethyl-4-hydroxy-5-(2,4,6-trimethylbenzyl)-5H-thiophen-2-one]
[1]
  IC50: > 1000 µM
[2]
  IC50: > 1000 µM
[3]
  IC50: > 1000 µM
[4]
  IC50: > 1000 µM

## COc1ccccc1CC1(C)SC(=O)C(C)C1=O (stereo not given) [3,5-dimethyl-4-hydroxy-5-(2-methoxybenzyl)-5H-thiophen-2-one]
[1]
  IC50: > 1000 µM
[2]
  IC50: > 1000 µM
[3]
  IC50: > 1000 µM
[4]
  IC50: > 100 µM

## Cc1ccccc1CC1(C)SC(=O)C(C)C1=O (stereo not given) [3,5-dimethyl-4-hydroxy-5-(2-methylbenzyl)-5H-thiophen-2-one]
[1]
  IC50: > 1000 µM
[2]
  IC50: > 1000 µM
[3]
  IC50: > 1000 µM
[4]
  IC50: > 1000 µM

## Cc1cccc(CC2(C)SC(=O)C(C)C2=O)c1 (stereo not given) [3,5-dimethyl-4-hydroxy-5-(3-methylbenzyl)-5H-thiophen-2-one]
[1]
  IC50: > 1000 µM
[2]
  IC50: > 1000 µM
[3]
  IC50: > 1000 µM
[4]
  IC50: > 1000 µM

## CC(C)CCC1(C)SC(=O)C(C)C1=O (stereo not given) [3,5-dimethyl-4-hydroxy-5-(3-methylbutyl)-5H-thiophen-2-one]
[1]
  IC50: > 1000 µM
[2]
  IC50: > 1000 µM
[3]
  IC50: > 1000 µM
[4]
  IC50: > 1000 µM

## CC1C(=O)SC(C)(CCCc2ccccc2)C1=O (stereo not given) [3,5-dimethyl-4-hydroxy-5-(3-phenylpropyl)-5H-thiophen-2-one]
[1]
  IC50: > 1000 µM
[2]
  IC50: > 1000 µM
[3]
  IC50: > 1000 µM
[4]
  IC50: > 1000 µM

## CC1C(=O)SC(C)(Cc2cccc(C(F)(F)F)c2)C1=O (stereo not given) [3,5-dimethyl-4-hydroxy-5-(3-trifluoromethylbenzyl)-5H-thiophen-2-one]
[1]
  IC50: > 1000 µM
[2]
  IC50: > 1000 µM
[3]
  IC50: > 1000 µM
[4]
  IC50: > 1000 µM

## Cc1ccc(CC2(C)SC(=O)C(C)C2=O)cc1 (stereo not given) [3,5-dimethyl-4-hydroxy-5-(4-methylbenzyl)-5H-thiophen-2-one]
[1]
  IC50: > 1000 µM
[2]
  IC50: > 1000 µM
[3]
  IC50: > 1000 µM
[4]
  IC50: > 1000 µM

## CC1C(=O)SC(C)(Cc2ccc([N+](=O)[O-])cc2)C1=O (stereo not given) [3,5-dimethyl-4-hydroxy-5-(4-nitrobenzyl)-5H-thiophen-2-one]
[1]
  IC50: > 1000 µM
[2]
  IC50: > 1000 µM
[3]
  IC50: > 1000 µM
[4]
  IC50: > 1000 µM

## CC1C(=O)SC(C)(Cc2ccc(C(F)(F)F)cc2)C1=O (stereo not given) [3,5-dimethyl-4-hydroxy-5-(4-trifluoromethylbenzyl)-5H-thiophen-2-one]
[4]
  IC50: > 100 µM

## CC/C=C/CC1(C)SC(=O)C(C)C1=O (stereo not given) [3,5-dimethyl-4-hydroxy-5-((E)-pent-2-enyl)-5H-thiophen-2-one]
[1]
  IC50: > 1000 µM
[2]
  IC50: > 1000 µM
[3]
  IC50: > 1000 µM
[4]
  IC50: > 1000 µM

## CC[C@H](C)CC1(C)SC(=O)C(C)C1=O (stereo partly drawn) [3,5-dimethyl-4-hydroxy-5-((S)2-methylbutyl)-5H-thiophen-2-one]
[1]
  IC50: > 100 µM

## CC1C(=O)SC(C)(Cc2ccc3ccccc3c2)C1=O (stereo not given) [3,5-dimethyl-4-hydroxy-5-(naphthalen-2-ylmethyl)-5H-thiophen-2-one]
[1]
  IC50: > 1000 µM
[2]
  IC50: > 1000 µM
[3]
  IC50: > 1000 µM
[4]
  IC50: > 100 µM

## CCCCCCCCCC1(C)SC(=O)C(C)C1=O (stereo not given) [3,5-dimethyl-4-hydroxy-5-nonyl-5H-thiophen-2-one]
[1]
  IC50: > 100 µM
[2]
  IC50: > 1000 µM
[3]
  IC50: > 1000 µM
[4]
  IC50: > 100 µM

## C=CCCCCCCC1(C)SC(=O)C(C)C1=O (stereo not given) [3,5-dimethyl-4-hydroxy-5-oct-7-enyl-5H-thiophen-2-one]
[1]
  IC50: > 1000 µM
[2]
  IC50: > 1000 µM
[3]
  IC50: > 1000 µM
[4]
  IC50: > 1000 µM

## CC1C(=O)SC(C)(CCc2ccccc2)C1=O (stereo not given) [3,5-dimethyl-4-hydroxy-5-phenethyl-5H-thiophen-2-one]
[1]
  IC50: > 1000 µM
[2]
  IC50: > 1000 µM
[3]
  IC50: > 1000 µM
[4]
  IC50: > 1000 µM

## CCCCCCCCCCCCCCC1(C)SC(=O)C(C)C1=O (stereo not given) [3,5-dimethyl-4-hydroxy-5-tetradecyl-5H-thiophen-2-one]
[1]
  IC50: 100 µM
[2]
  IC50: > 100 µM
[4]
  IC50: 80 µM

## CCCCCCCCCCCCCC1(C)SC(=O)C(C)C1=O (stereo not given) [3,5-dimethyl-4-hydroxy-5-tridecyl-5H-thiophen-2-one]
[1]
  IC50: 100 µM
[2]
  IC50: > 100 µM
[4]
  IC50: 80 µM

## CCCCCCCCCCCC1(C)SC(=O)C(C)C1=O (stereo not given) [3,5-dimethyl-4-hydroxy-5-undecyl-5H-thiophen-2-one]
[1]
  IC50: > 100 µM
[2]
  IC50: > 1000 µM
[3]
  IC50: > 1000 µM

## Cc1ccc(C)c(CC2(C)SC(=O)C(C)C2=O)c1 (stereo not given) [3,5-dimethyl-5-(2,5-dimethylbenzyl)-4-hydroxy-5H-thiophen-2-one]
[1]
  IC50: > 1000 µM
[2]
  IC50: > 1000 µM
[3]
  IC50: > 1000 µM
[4]
  IC50: > 1000 µM

## CCCCC(CC)CC1(C)SC(=O)C(C)C1=O (stereo not given) [3,5-dimethyl-5-(2-ethylhexyl)-4-hydroxy-5H-thiophen-2-one]
[1]
  IC50: > 1000 µM
[2]
  IC50: > 1000 µM
[3]
  IC50: > 1000 µM
[4]
  IC50: > 1000 µM

## COc1cc(CC2(C)SC(=O)C(C)C2=O)cc(OC)c1 (stereo not given) [3,5-dimethyl-5-(3,5-dimethoxybenzyl)-4-hydroxy-5H-thiophen-2-one]
[1]
  IC50: > 1000 µM
[2]
  IC50: > 1000 µM
[3]
  IC50: > 1000 µM
[4]
  IC50: > 1000 µM

## CC1C(=O)SC(C)(Cc2ccc(F)cc2)C1=O (stereo not given) [3,5-dimethyl-5-(4-fluorobenzyl)-4-hydroxy-5H-thiophen-2-one]
[1]
  IC50: > 1000 µM
[2]
  IC50: > 1000 µM
[3]
  IC50: > 1000 µM
[4]
  IC50: > 100 µM

## CCCCCCCC1(C)SC(=O)C(C)C1=O (stereo not given) [3,5-dimethyl-5-heptyl-4-hydroxy-5H-thiophen-2-one]
[1]
  IC50: > 1000 µM
[2]
  IC50: > 1000 µM
[3]
  IC50: > 1000 µM
[4]
  IC50: > 1000 µM

## CCCCCCCCC1(C)SC(=O)C(C)C1=O (stereo not given) [4-Hydroxy-3,5-dimethyl-5-octyl-5H-thiophen-2-one]
[1]
  IC50: > 100 µM
[4]
  IC50: > 100 µM

## COc1cccc(CC2(C)SC(=O)C(C)C2=O)c1 (stereo not given) [4-Hydroxy-5-(3-methoxy-benzyl)-3,5-dimethyl-5H-thiophen-2-one]
[1]
  IC50: > 1000 µM
[2]
  IC50: > 1000 µM
[3]
  IC50: > 1000 µM
[4]
  IC50: > 1000 µM

## CC1C(=O)SC(C)(Cc2ccc(Cl)cc2Cl)C1=O (stereo not given) [5-(2,4-dichlorobenzyl)-3,5-dimethyl-4-hydroxy-5H-thiophen-2-one]
[4]
  IC50: > 100 µM

## CC1C(=O)SC(C)(Cc2ccc(Cl)c(Cl)c2)C1=O (stereo not given) [5-(3,4-dichlorobenzyl)-3,5-dimethyl-4-hydroxy-5H-thiophen-2-one]
[1]
  IC50: > 100 µM
[4]
  IC50: > 100 µM

## CC(C)=CCC/C(C)=C/CC1(C)SC(=O)C(C)C1=O (stereo not given) [5-((E)-3,7-Dimethyl-octa-2,6-dienyl)-4-hydroxy-3,5-dimethyl-5H-thiophen-2-one]
[1]
  IC50: 100 µM

## CCCCCCCCCCC1(C)SC(=O)C(C)C1=O (stereo not given) [5-Decyl-4-hydroxy-3,5-dimethyl-5H-thiophen-2-one]
[1]
  IC50: 100 µM
[4]
  IC50: > 100 µM

## CC1C(=O)SC(C)(C2CCCCC2)C1=O (stereo not given) [5-cyclohexyl-3,5-dimethyl-4-hydroxy-5H-thiophen-2-one]
[4]
  IC50: > 100 µM

## CC1C(=O)SC(C)(CC2CC2)C1=O (stereo not given) [5-cyclopropylmethyl-3,5-dimethyl-4-hydroxy-5H-thiophen-2-one]
[1]
  IC50: > 100 µM
